Experimental data reported in publication PMC3908673 (Bioorganic & medicinal chemistry, 2013).
Like-named read-outs stand apart in the source and are kept apart here.

Tests used:
β2-AR [1] = target: T1, β2-AR (Homo sapiens, UniProt P07550); format: binding
β2-AR [2] = target: T1, β2-AR; settings: marker [3H]-(R,R′)-2
[3] = system: isolated rat ventricular myocytes; settings: cited from earlier work
Gs proteins = settings: ref [2]; cited from earlier work
[4] = target: β2-AR relative to the β1-AR; settings: β2-AR subtype selectivity; ref [3]; cited from earlier work
1321N1 astrocytoma cells [5] = settings: read-out: IC50, proliferation of 1321N1 astrocytoma cells; ref [5]; cited from earlier work
1321N1 astrocytoma cells [6] = assay: inhibition of proliferation of 1321N1 astrocytoma cells; format: cell-based; settings: Homo sapiens, 1321-N1, read-out: IC50, proliferation of 1321N1 astrocytoma cells
[7] = system: isolated rat ventricular myocytes; assay: cardiomyocyte contractility model; format: cell-based; settings: initial studies, unpublished data

T1 sequence (P07550 whole entry): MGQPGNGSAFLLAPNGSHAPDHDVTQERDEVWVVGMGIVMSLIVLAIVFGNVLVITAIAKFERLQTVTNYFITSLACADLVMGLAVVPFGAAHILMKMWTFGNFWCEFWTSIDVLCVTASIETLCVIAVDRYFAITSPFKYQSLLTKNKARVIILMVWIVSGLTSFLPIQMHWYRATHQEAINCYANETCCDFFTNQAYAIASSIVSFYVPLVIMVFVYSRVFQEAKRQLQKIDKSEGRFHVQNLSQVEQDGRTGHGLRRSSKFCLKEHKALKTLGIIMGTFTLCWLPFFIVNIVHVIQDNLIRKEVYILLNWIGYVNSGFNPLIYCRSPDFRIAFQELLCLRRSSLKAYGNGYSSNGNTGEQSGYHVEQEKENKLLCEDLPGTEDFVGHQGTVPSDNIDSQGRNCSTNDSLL

Row | SMILES | HS (Hill coefficient), displacement of [3H]-CGP-12177 (β2-AR [1]; marker [3H]-CGP-12177) | HS (Hill coefficient), displacement of [3H]-(R,R′)-2 (β2-AR [2]) | further results
1 | COc1ccc(CCNC[C@H](O)c2cc(O)cc(O)c2)cc1 [(R)-67, (R)-(−)-5-(1-Hydroxy-2-((4-methoxyphenethyl)amino)ethyl)benzene-1,3-diol] | 1.80 ± 0.70 | 1.59 ± 0.50 | Ki lower than (S)-67 (β2-AR [2]): 10 fold
2 | C[C@H](Cc1ccc(O)cc1)NC[C@H](O)c1cc(O)cc(O)c1 [(R,R′)-1, (R,R′)-Fenoterol] |  | 0.76 ± 0.1 | increase in contractile response ([3]; isolated rat ventricular myocytes, ref [1],[2]): 300%; G protein coupling (Gs proteins): selectively couples to Gs proteins
3 | COc1ccc(C[C@@H](C)NC[C@H](O)c2cc(O)cc(O)c2)cc1 [(R,R′)-2, (R,R′)-4′-methoxyfenoterol] |  | 0.80 ± 0.9 | HS (Hill coefficient), displacement of [3H]-CGP-12177 (β2-AR [1]): 0.98 ± 0.05; G protein coupling (Gs proteins): selectively signaled through Gs proteins
4 | CC[C@H](Cc1ccc(O)cc1)NC[C@H](O)c1cc(O)cc(O)c1 [(R,R′)-52] | 1.01 ± 0.01 | 0.93 ± 0.1 | Kiβ1-AR/Kiβ2-AR [4]: 334; stimulation of rat cardiomyocyte contractility ([3]; ref [3]): essentially inactive; lower activity in the cardiomyocyte contractility model ([3]; relative to other tested compounds, ref [3]): > 100 fold; IC50 (1321N1 astrocytoma cells [5]): 1.4 nM
5 | COc1ccc(C[C@@H](C)NC[C@H](O)c2cc(O)cc(O)c2)c2ccccc12 [(R,R′)-54] | 1.07 ± 0.09 | 0.86 ± 0.1 | 
6 | CC[C@H](Cc1ccc(OC)cc1)NC[C@H](O)c1cc(O)cc(O)c1 [(R,R′)-64, (R,R′)-(−)-5-(1-Hydroxy-2-((1-(4-methoxyphenyl)butan-2-yl)amino)ethyl)benzene-1,3-diol] | 1.00 ± 0.11 | 0.82 ± 0.04 | Ki lower than (R,R′)-52 (β2-AR [1]; marker [3H]-CGP-12177): 3 fold; Ki(R,S′)/Ki(R,R′) (β2-AR [1]; marker [3H]-CGP-12177, difference between (R,S′)- and (R,R′)-isomers): 50 fold; IC50 (1321N1 astrocytoma cells [6]): 1.5 nM; activity in the cardiomyocyte contractility model [7]: no activity; decrease in binding affinity compared with (R,R′)-2 (β2-AR [2]): 10 fold
7 | COc1ccc(C[C@H](NC[C@H](O)c2cc(O)cc(O)c2)C(C)C)cc1 [(R,R′)-65, (R,R′)-5-(1-Hydroxy-2-((1-(4-methoxyphenyl)-3-methylbutan-2-yl)amino)ethyl)-benzene-1,3-diol] |  | 1.41 ± 0.47 | 
8 | CCC[C@H](Cc1ccc(OC)cc1)NC[C@H](O)c1cc(O)cc(O)c1 [(R,R′)-66, (R,R′)-5-(1-Hydroxy-2-((1-(4-methoxyphenyl)pentan-2-yl)amino)ethyl)benzene-1,3-diol] | 0.90 ± 0.03 | 1.38 ± 0.32 | 
9 | C[C@@H](Cc1ccc(O)cc1)NC[C@H](O)c1cc(O)cc(O)c1 [(R,S′)-1] | 0.81 ± 0.1 | 0.97 ± 0.1 | 
10 | COc1ccc(C[C@H](C)NC[C@H](O)c2cc(O)cc(O)c2)cc1 [(R,S′)-2] |  | 1.00 ± 0.05 | HS (Hill coefficient), displacement of [3H]-CGP-12177 (β2-AR [1]): 1.01 ± 0.14
11 | CC[C@@H](Cc1ccc(O)cc1)NC[C@H](O)c1cc(O)cc(O)c1 [(R,S′)-52] | 2.07 ± 0.4 | 0.87 ± 0.2 | 
12 | COc1ccc(C[C@H](C)NC[C@H](O)c2cc(O)cc(O)c2)c2ccccc12 [(R,S′)-54] | 1.06 ± 0.02 | 0.90 ± 0.2 | 
13 | CC[C@@H](Cc1ccc(OC)cc1)NC[C@H](O)c1cc(O)cc(O)c1 [(R,S′)-64, (R,S′)-(+)-5-(1-Hydroxy-2-((1-(4-methoxyphenyl)butan-2-yl)amino)ethyl)benzene-1,3-diol] |  | 0.86 ± 0.05 | 
14 | COc1ccc(C[C@@H](NC[C@H](O)c2cc(O)cc(O)c2)C(C)C)cc1 [(R,S′)-65, (R,S′)-(−)-5-(1-hydroxy-2-((1-(4-methoxyphenyl)-3-methylbutan-2-yl)amino)-ethyl)benzene-1,3-diol] |  | 1.45 ± 0.56 | 
15 | CCC[C@@H](Cc1ccc(OC)cc1)NC[C@H](O)c1cc(O)cc(O)c1 [(R,S′)-66, (R,S′)-5-(1-Hydroxy-2-((1-(4-methoxyphenyl)pentan-2-yl)amino)ethyl)benzene-1,3-diol] |  | 0.89 ± 0.14 | 
16 | COc1ccc(CCNC[C@@H](O)c2cc(O)cc(O)c2)cc1 [(S)-67, (S)-5-(1-Hydroxy-2-((4-methoxyphenethyl)amino)ethyl)benzene-1,3-diol] |  | 0.89 ± 0.03 | 
17 | COc1ccc(C[C@@H](C)NC[C@@H](O)c2cc(O)cc(O)c2)cc1 [(S,R′)-2] |  | 0.86 ± 0.13 | 
18 | COc1ccc(C[C@H](C)NC[C@@H](O)c2cc(O)cc(O)c2)cc1 [(S,S′)-2] |  | 1.68 ± 0.54 | HS (Hill coefficient), displacement of [3H]-CGP-12177 (β2-AR [1]): 2.30 ± 0.32
